# Reference: patent publication US9474759B2 (priority 2011, dated 2016)
# Columns and labels:
# [1] = molecular target: Norwalk virus 3CL protease (Norovirus, UniProt Q83883); test: Recombinant NV protease fluorogenic substrate inhibition assay (Example 1); type: biochemical; conditions: 30 min pre-incubation, 30° C., pH 8.0
# Procedure: After a 30 minute incubation period, 5 μL of 12 μM Edans-[…]-Dabcyl (SEQ ID NO:1) substrate in DMSO was then added and the increase in fluorescence was monitored for 30 minutes at an excitation and emission wavelength of 360 and 460 nm, respectively. Using a HORIBA FluoroMax 4 spectrofluorometer. Hydrolysis curves were linear. The final enzyme and substrate concentrations were 2.5 μM and 300 nM, respectively. […] Furthermore, the nature of the cap was also important (compare, for example, inhibitors A and D).
# [2] = test system: norovirus (NV replicon-harboring HG23 cells); test: NV replicon-harboring cells (HG23), NV genome levels by qRT-PCR (Example 1); type: cell-based, Norwalk virus; conditions: read-out: ED50, effective dose that inhibits 50% of norovirus replication, NV genome levels at 24 hrs post-treatment
# [3] = test system: murine norovirus-1 (MNV-1); test: MNV-1 replication in RAW267.4 cells, TCID50 (Example 1); type: cell-based; conditions: Norwalk virus, MOI 2, TCID50 assay, read-out: ED50, replication of murine norovirus (MNV)
# [4] = test system: Norwalk virus (HG23 cells); test: microbe, parasite or virus in culture; type: cell-based; conditions: HG23, read-out: Inhibition [ED50 (μM)] against various viruses: Calicivirus, HG23 cells
# TGEV = test: Cell-based screening, TGEV in ST cells (Example 2); set-up: species or system transmissible gastroenteritis virus; conditions: Alphacoronavirus 1; ST cells; read-out: Inhibition [ED50 (μM)] against various viruses: Coronavirus, TGEV
# Procedure: (§1) 3. Cell-based screening of inhibitor. The effects of each inhibitor on the viral replication were examined. The list of viruses and corresponding cell lines are listed above in Table 2. Briefly, confluent cells were inoculated with virus at a MOI of 5 or 0.05 for 1 hr, and medium was replaced with medium containing mock-medium or each compound (up to 100 μM). The virus infected cells were further incubated for up to 96 hrs, and the replication of virus was measured by TCID50 assay with the 10-fold dilution of each sample used for virus titration (Reed and Muench, 1938). In some viruses, the virus protein and genome expression levels were detected by Western blot analysis and real-time qRT-PCR, respectively, as described below. The IC50s of the compounds were calculated.
# MHV = test: Cell-based screening, MHV in CCL-9.1 cells (Example 2); set-up: species or system mouse hepatitis virus; conditions: Murine coronavirus; CCL-9.1 cells; read-out: Inhibition [ED50 (μM)] against various viruses: Coronavirus, MHV
# EV71 = test: Cell-based screening, EV71 in Vero cells (Example 2); set-up: species or system enterovirus 71; conditions: Enterovirus A, EV71; Vero cells; read-out: Inhibition [ED50 (μM)] against various viruses: Picornavirus, EV71
# Procedure: as §1
# [5] = molecular target: recombinant 3C or 3CL of MD145 (Norovirus Hu/GII.4/MD145-12/1987/US (Maryland virus), UniProt Q8V0P3); test: FRET protease assay, MD145 3CL (Example 2); type: biochemical, norovirus strain MD145
# TGEV 3CL protease = TGEV 3CL protease (Porcine transmissible gastroenteritis coronavirus, UniProt P0C6Y5); test: FRET-based protease assay, TGEV 3CL protease (Example 5); type: biochemical, TGEV Miller strain
# Excerpt: The 3CL proteases are highly conserved among all coronaviruses, and feline coronavirus 3CL protease is closely related TGEV 3CL protease. Therefore we cloned and expressed the TGEV 3CL protease for the FRET assay. The cDNA encoding the full length of 3CL protease of TGEV Miller strain was amplified with RT-PCR as previously described. The primers contained the nucleotide sequence of the 3CL protease for cloning as well as the nucleotides for 6 Histidine in the forward primer. The amplified product was subcloned to pET-28a(+) vector (GenScript, Piscataway, N.J.). The expression and purification of the 3CL protease was performed with a standard method described previously by our lab (Chang et al., 2012b; Takahashi et al., 2012; Tiew et al., 2011).
# Our protease inhibitor compounds and commercial cathepsin inhibitors CA074-Me and E64d were prepared in DMSO as stock solutions (10 mM), and further diluted in assay buffer consisting of 20 mM HEPES, 0.4 mM EDTA, 30% glycerol, 120 mM NaCl, and 4 mM DTT at pH 6. […] TGEV 3CL protease at a final concentration of 0.1˜0.2 μM and the substrate (Dabcyl-[…]-Edans; SEQ ID NO:2) at 10 μM were used for the studies. The substrate was purchased from Bachem Americas, Inc (Torrance, Calif.). Compounds at various concentrations (0˜50 μM) were pre-incubated with TGEV 3CL protease in 25 μl for 30 min at 37° C., and the same volume of substrate was added to a 96-well black plate. The mixtures were then incubated at 37° C. for 60 min, and fluorescence readings were obtained on a microplate reader at 360 nm excitation and 480 nm emission wavelengths. The relative fluorescence units (RFU) were calculated by subtracting background (substrate control well without protease) from the fluorescence readings. The dose-dependent FRET inhibition curves were fitted with variable slope (four parameters) using GraphPad Prism software (La Jolla, Calif.) in order to determine the compound concentration that gives a half-maximum response (IC50).
# FIPV-1146 = test: Combination treatment of CA074-Me and GC373 on FIPV-1146 replication, MacSynergy II; type: cell-based, feline coronavirus; conditions: GC373 alone at 0.05 μM, FIPV-infected CRFK cells
# Procedure: The CRFK cells were incubated with GC373 (0.02˜0.2 μM), CA074-Me (0.5˜5 μM), or the combinations of GC373 (0.02˜0.2 μM) and CA074-Me (0.5˜5 μM) for 1 hr at 37° C. prior to inoculation of FIPV-1146 at an MOI of 0.05. After 24 hrs of incubation, virus replication was assessed with virus titration using the TCID50 method. Drug-drug interactions were analyzed by the three-dimensional model of Prichard and Shipman, using the MacSynergy II software at 95% confidence limits. Theoretical additive interactions were calculated from the dose-response curve for each compound individually, and the calculated additive surface was subtracted from the experimentally determined dose-response surface to give regions of synergistic or antagonistic interactions. The resulting surface appears as horizontal plane at 0% of synergy if the interactions of two compounds are additive. Any peak above or below this plane indicates synergy or antagonism, respectively.
# [6] = molecular target: MD145 3CLpro (codon-optimized, full-length, N-terminal 6 His, recombinant) (Lordsdale virus, UniProt P54634); test: biochemical; set-up: species or system norovirus strain MD145 (human norovirus GII)
# [7] = PK and oral bioavailability studies in rats; conditions: 20 mg/Kg (body weight), IV or PO
# TGEV 3CL protease, sequence (P0C6Y5 2879-3180): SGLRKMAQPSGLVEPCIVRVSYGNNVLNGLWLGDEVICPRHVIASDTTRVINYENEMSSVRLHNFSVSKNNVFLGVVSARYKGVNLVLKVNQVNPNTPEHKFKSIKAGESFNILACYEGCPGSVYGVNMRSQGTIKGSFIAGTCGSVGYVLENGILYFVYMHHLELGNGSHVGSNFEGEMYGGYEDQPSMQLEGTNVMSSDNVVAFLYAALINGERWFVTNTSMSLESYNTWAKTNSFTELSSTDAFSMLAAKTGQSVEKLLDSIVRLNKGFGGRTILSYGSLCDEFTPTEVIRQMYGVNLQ
# recombinant 3C or 3CL of MD145, sequence (Q8V0P3 entry or part of it): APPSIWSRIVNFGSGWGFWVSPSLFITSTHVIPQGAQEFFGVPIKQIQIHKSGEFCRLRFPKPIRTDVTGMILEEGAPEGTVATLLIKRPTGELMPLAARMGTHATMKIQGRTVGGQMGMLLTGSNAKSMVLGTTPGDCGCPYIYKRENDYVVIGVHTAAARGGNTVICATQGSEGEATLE
# MD145 3CLpro (codon-optimized, full-length, N-terminal 6 His, recombinant), sequence (P54634 1009-1189): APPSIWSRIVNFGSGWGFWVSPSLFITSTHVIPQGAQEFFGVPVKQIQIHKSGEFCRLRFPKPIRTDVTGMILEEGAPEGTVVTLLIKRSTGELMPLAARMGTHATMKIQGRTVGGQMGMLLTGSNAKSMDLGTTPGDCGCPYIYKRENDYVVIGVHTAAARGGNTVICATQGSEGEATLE
# Norwalk virus 3CL protease, sequence (Q83883 1101-1281): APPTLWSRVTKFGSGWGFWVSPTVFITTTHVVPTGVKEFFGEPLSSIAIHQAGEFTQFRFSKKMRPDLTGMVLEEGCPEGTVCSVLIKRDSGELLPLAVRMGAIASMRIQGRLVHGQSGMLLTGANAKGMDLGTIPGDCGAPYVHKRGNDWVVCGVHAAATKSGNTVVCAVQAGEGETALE
compound,measurement,setting,value
CC(C)C[C@H](NC(=O)OCc1ccccc1)C(=O)N[C@H](C=O)C[C@@H]1CCNC1=O [GC373],inhibitory activity against Norwalk virus 3CL protease (in words),[1],dose-dependent inhibition
same,EC50,[2],2100 nM
same,EC50,[3],5500 nM
same,EC50,[4],2.1 µM
same,EC50,TGEV,0.3 µM
same,EC50,MHV,2 µM
same,EC50,EV71,11 µM
same,IC50,[5],20.3 µM
same,IC50,"TGEV 3CL protease; TGEV 3CL protease, read-out: IC50 against 3CL protease in the FRET assay",980 nM
same,inhibition of the activity of TGEV 3CL protease (in words),TGEV 3CL protease; compound at 50 μM final concentration,remarkably inhibited
same,reduction of virus titers,FIPV-1146,0.5 log10
same,IC50,[6],1180 nM
same,"oral bioavailability, % F",[7],3 % F
